From patent US10336762B2 (priority 2017, dated 2019)
Where two headings read alike, the source gives them in different places.

Columns and labels:
IRAK4 enzyme = IRAK4 enzyme (Homo sapiens (Human), UniProt Q9NWZ3); experiment: biochemical; format: biochemical; conditions: IRAK4 enzyme, 500 μM ATP
TNFα = experiment: cells; format: cell-based, human; conditions: LPS-stimulated human monocytes, read-out: EC50 TNF
[1] = Homo sapiens, Monocyte, TNFα content
[2] = Homo sapiens, Monocyte, TNFα by TR-FRET

Chain of IRAK4 enzyme (Q9NWZ3 whole entry): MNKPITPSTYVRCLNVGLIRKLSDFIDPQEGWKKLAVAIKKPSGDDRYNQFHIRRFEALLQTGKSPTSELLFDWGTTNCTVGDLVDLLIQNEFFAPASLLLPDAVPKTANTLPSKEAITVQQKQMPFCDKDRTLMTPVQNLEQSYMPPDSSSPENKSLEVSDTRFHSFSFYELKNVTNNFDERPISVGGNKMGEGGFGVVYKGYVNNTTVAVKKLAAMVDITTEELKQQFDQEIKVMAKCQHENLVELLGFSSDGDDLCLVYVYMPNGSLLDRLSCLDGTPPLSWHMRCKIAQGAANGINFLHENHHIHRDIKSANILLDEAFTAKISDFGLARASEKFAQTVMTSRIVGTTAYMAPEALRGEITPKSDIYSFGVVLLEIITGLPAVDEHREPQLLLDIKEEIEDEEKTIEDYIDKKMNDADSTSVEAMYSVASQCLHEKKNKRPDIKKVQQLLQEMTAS

Compound | IC50 (IRAK4 enzyme; TR-FRET) [nM] | EC50 (TNFα; [1]) [nM] | IC50 (IRAK4 enzyme; TR-FRET (HTRF)) [nM] | EC50 (TNFα; [2]) [nM] | EC50 (TNFα; TNFα content) [nM]
COC(C)(C)CCNC(=O)c1cnc(-c2ccc3cc(C#N)cnn23)cc1NC(C)C [Example 87, 6-(3-cyanopyrrolo[1,2-b]pyridazin-7-yl)-4-(isopropylamino)-N-(3-methoxy-3-methylbutyl)nicotinamide] | 1 | 160 |  |  | 
CC(C)Nc1cc(-c2ccc3cc(C#N)cnn23)ncc1C(=O)NC1CCC(NC(=O)C2(C)COC2)CC1 (stereo not shown) [Example 134, 6-(3-cyanopyrrolo[1,2-b]pyridazin-7-yl)-4-(isopropylamino)-N-((1r,4r)-4-(3-methyloxetane-3-carboxamido)cyclohexyl)nicotinamide] | 1 | 101 |  |  | 
N#Cc1cnn2c(-c3cc(NC45CCC(O)(CC4)CC5)c(C(=O)NCCO)cn3)ccc2c1 [Example 745, 6-(3-cyanopyrrolo[1,2-b]pyridazin-7-yl)-4-((4-hydroxybicyclo[2.2.2]octan-1-yl)amino)-N-(2-hydroxyethyl)nicotinamide] |  | 87 | < 1 |  | 
N#Cc1cnn2c(-c3cc(N[C@H]4CCC[C@@H](O)C4)c(C(=O)NC4CC5(C4)CC(F)(F)C5)cn3)ccc2c1 [Example 427, 6-(3-cyanopyrrolo[1,2-b]pyridazin-7-yl)-N-(6,6-difluorospiro[3.3]heptan-2-yl)-4-(((1S,3R)-3-hydroxycyclohexyl)amino) nicotinamide] |  | 278 | 2 |  | 
CNC(=O)[C@H]1CC[C@@H](Nc2cc(-c3ccc4cc(C#N)cnn34)ncc2C(=O)NC[C@@H](F)C(C)(C)O)CC1 [Example 362, 6-(3-cyanopyrrolo[1,2-b]pyridazin-7-yl)-N-((R)-2-fluoro-3-hydroxy-3-methylbutyl)-4-(((1s,4S)-4-(methylcarbamoyl)cyclo-hexyl)amino)nicotinamide] | 9 | 1430 |  |  | 
CC(C)Nc1cc(-c2ccc3cc(C#N)cnn23)ncc1C(=O)NC[C@@H](F)C1(O)CC1 [Example 643, (R)-6-(3-cyanopyrrolo[1,2-b]pyridazin-7-yl)-N-(2-fluoro-2-(1-hydroxycyclo-propyl)ethyl)-4-(isopropyl-amino)nicotinamide] |  | 8 | < 1 |  | 
CC(C)(O)[C@H](F)CNC(=O)c1cnc(-c2ccc3cc(C#N)cnn23)cc1Nc1cnc(Cl)nc1 [Example 971, (R)-4-((2-chloropyrimidin-5-yl)amino)-6-(3-cyano-pyrrolo[1,2-b]pyridazin-7-yl)-N-(2-fluoro-3-hydroxy-3-methylbutyl)nicotinamide] | < 1 |  |  | 74 | 
COC(=O)NC1(c2ccc(Nc3cc(-c4ccc5cc(C#N)cnn45)ncc3C(=O)N[C@H]3CC[C@H](NC(=O)C4CC4)CC3)cc2)CC1 [Example 866, methyl (1-(4-((2-(3-cyano-pyrrolo[1,2-b]pyridazin-7-yl)-5-(((1r,4r)-4-(cyclopropanecarboxamido)cyclohexyl)carbamoyl)pyridin-4-yl)amino)phenyl)cyclopropyl)carbamate] | 1 |  |  | 37 | 
CC(C)(O)[C@H](F)CNC(=O)c1cnc(-c2ccc3cc(C#N)cnn23)cc1Nc1cnc(C2CC2)nc1 [Example 666, (R)-6-(3-cyanopyrrolo[1,2-b]pyridazin-7-yl)-4-((2-cyclopropylpyrimidin-5-yl)amino)-N-(2-fluoro-3-hydroxy-3-methylbutyl) nicotinamide] |  | 30 | < 1 |  | 
CC(=O)NC1CCN(c2ccc(Nc3cc(-c4ccc5cc(C#N)cnn45)ncc3C(=O)NC[C@@H](F)C(C)(C)O)cn2)CC1 [Example 880, (R)-4-((6-(4-acetamido-piperidin-1-yl)pyridin-3-yl)amino)-6-(3-cyano-pyrrolo[1,2-b]pyridazin-7-yl)-N-(2-fluoro-3-hydroxy-3-methylbutyl) nicotinamide] | < 1 |  |  | 58 | 
Cc1noc(C)c1CNc1cc(-c2ccc3cc(C#N)cnn23)ncc1C(=O)NC[C@@H](F)C(C)(C)O [Example 107, (R)-6-(3-cyanopyrrolo[1,2-b]pyridazin-7-yl)-4-(((3,5-dimethylisoxazol-4-yl)methyl)amino)-N-(2-fluoro-3-hydroxy-3-methylbutyl) nicotinamide] | 17 | 961 |  |  | 
Cc1ncoc1-c1ccc(Nc2cc(-c3ccc4cc(C#N)cnn34)ncc2C(=O)NC[C@@H](F)C(C)(C)O)cn1 [Example 632, (R)-6-(3-cyanopyrrolo[1,2-b]pyridazin-7-yl)-N-(2-fluoro-3-hydroxy-3-methylbutyl)-4-((6-(4-methyloxazol-5-yl)pyridin-3-yl)amino) nicotinamide] |  | 28 | < 1 |  | 
CC(C)(O)[C@H](F)CNC(=O)c1cnc(-c2ccc3cc(C#N)cnn23)cc1Nc1ccc(CN2CCOC2=O)cc1 [Example 201, (R)-6-(3-cyanopyrrolo[1,2-b]pyridazin-7-yl)-N-(2-fluoro-3-hydroxy-3-methylbutyl)-4-((4-((2-oxooxazolidin-3-yl)methyl)phenyl)amino) nicotinamide] | 1 | 11 |  |  | 
CC(C)(O)[C@H](F)CNC(=O)c1cnc(-c2ccc3cc(C#N)cnn23)cc1Nc1ccc2c(c1)CN(C1COC1)C2 [Example 864, (R)-6-(3-cyanopyrrolo[1,2-b]pyridazin-7-yl)-N-(2-fluoro-3-hydroxy-3-methylbutyl)-4-((2-(oxetan-3-yl)isoindolin-5-yl)amino) nicotinamide] | < 1 |  |  | 69 | 
CC(C)Nc1cc(-c2ccc3cc(C#N)cnn23)ncc1C(=O)NC1CC2(CC(O)C2)C1 (stereo not shown) [Example 149, 6-(3-cyanopyrrolo[1,2-b]pyridazin-7-yl)-N-(6-hydroxyspiro[3.3]heptan-2-yl)-4-(isopropylamino) nicotinamide] | 1 | 148 |  |  | 
CC(=O)NC1(c2ccc(Nc3cc(-c4ccc5cc(C#N)cnn45)ncc3C(=O)NC[C@@H](F)C(C)(C)O)cc2)CC1 [Example 211, (R)-4-((4-(1-acetamidocyclo-propyl)phenyl)amino)-6-(3-cyanopyrrolo[1,2-b]pyridazin-7-yl)-N-(2-fluoro-3-hydroxy-3-methylbutyl)nicotinamide] | 1 | 50 |  |  | 
COCC1(Nc2cc(-c3ccc4cc(C#N)cnn34)ncc2C(=O)NC[C@@H](F)C(C)(C)O)CC1 [Example 112, (R)-6-(3-cyano-pyrrolo[1,2-b]pyridazin-7-yl)-N-(2-fluoro-3-hydroxy-3-methylbutyl)-4-((1-(methoxymethyl)cyclopropyl)amino)nicotinanide] | 4 | 399 |  |  | 
N#Cc1cnn2c(-c3cc(NC45CCC(O)(CC4)CC5)c(C(=O)NCC(=O)N4CC(F)(F)C4)cn3)ccc2c1 [Example 331, 6-(3-cyanopyrrolo[1,2-b]pyridazin-7-yl)-N-(2-(3,3-difluoroazetidin-1-yl)-2-oxoethyl)-4-((4-hydroxybicyclo[2.2.2]octan-1-yl)amino) nicotinamide] | < 1 | 25 |  |  | 
COC(=O)C12CCCC(Nc3cc(-c4ccc5cc(C#N)cnn45)ncc3C(=O)NC[C@@H](F)C(C)(C)O)(CC1)CC2 [Example 543, (R)-methyl 5-((2-(3-cyano-pyrrolo[1,2-b]pyridazin-7-yl)-5-((2-fluoro-3-hydroxy-3-methylbutyl)carbamoyl)pyridin-4-yl)amino)bicyclo[3.2.2] nonane-1-carboxylate] |  | 49 | 2 |  | 
CC(C)(O)[C@H](F)CNC(=O)c1cnc(-c2ccc3cc(C#N)cnn23)cc1N[C@H]1CC[C@@H](N)C1 [Example 310, 4-(((1S,3R)-3-aminocyclopentyl)amino)-6-(3-cyanopyrrolo[1,2-b]pyridazin-7-yl)-N-((R)-2-fluoro-3-hydroxy-3-methylbutyl)nicotinamide] | 2 | 362 |  |  | 
CC(C)(O)[C@H](F)CNC(=O)c1cnc(-c2ccc3cc(C#N)cnn23)cc1NC1Cc2ccncc2C1 (single isomer, unassigned) [Example 677] |  |  | < 1 |  | 54
COC(=O)N1CC[C@@H]1CNc1cc(-c2ccc3cc(C#N)cnn23)ncc1C(=O)NC[C@@H](F)C(C)(C)O [Example 893, (R)-methyl 2-(((2-(3-cyano-pyrrolo[1,2-b]pyridazin-7-yl)-5-(((R)-2-fluoro-3-hydroxy-3-methylbutyl)carbamoyl)pyridin-4-yl)amino)methyl)azetidine-1-carboxylate] | 2 |  |  | 217 | 
CNC(=O)O[C@@H]1CCC[C@H](Nc2cc(-c3ccc4cc(C#N)cnn34)ncc2C(=O)NC[C@@H](F)C(C)(C)O)C1 [Example 748, (1R,3S)-3-((2-(3-cyano-pyrrolo[1,2-b]pyridazin-7-yl)-5-(((R)-2-fluoro-3-hydroxy-3-methylbutyl)carbamoyl)pyridin-4-yl)amino)cyclohexyl methylcarbamate] |  | 38 | < 1 |  | 
N#Cc1cnn2c(-c3cc(NC45CCC(O)(CC4)CC5)c(C(=O)NCC4COC4)cn3)ccc2c1 [Example 617, 6-(3-cyanopyrrolo[1,2-b]pyridazin-7-yl)-4-((4-hydroxybicyclo[2.2.2]octan-1-yl)amino)-N-(oxetan-3-ylmethyl) nicotinamide] |  | 144 | 2 |  | 
COC(C)(C)[C@H](F)CNC(=O)c1cnc(-c2ccc3cc(C#N)cnn23)cc1N[C@H]1CCC[C@@H](O)C1 [Example 518, 6-(3-cyanopyrrolo[1,2-b]pyridazin-7-yl)-N-((R)-2-fluoro-3-methoxy-3-methylbutyl)-4-(((1S,3R)-3-hydroxycyclohexyl)amino) nicotinamide] |  | 13 | < 1 |  | 
CC(=O)N[C@H]1CC[C@@H](Nc2cc(-c3ccc4cc(C#N)cnn34)ncc2C(=O)NC[C@@H](F)C(C)(C)O)CC1 [Example 320, 4-(((1s,4S)-4-acetamidocyclohexyl)amino)-6-(3-cyano-pyrrolo[1,2-b]pyridazin-7-yl)-N-((R)-2-fluoro-3-hydroxy-3-methylbutyl) nicotinamide] | 3 | 1910 |  |  | 
